Assay results published in patent US20240025946A1, “Cyclic Tetrapeptides and Metal Complexes Thereof” (priority 2020, published 2024).
Several values for one entry are separate records, joined by “and”; a condition that tells them apart may be missing. Equal values may be shown once.

Key:
[1] = system: DH5α E. coli; experiment: In vivo recovery test: Pb detoxification of poisoned bacteria, colony counting; assay type: cell-based; conditions: highest concentration 120 mM (10 equiv.); Pb(NO3)2 12 mM; vs poisoned untreated cells; mean
Description: (§1) Desalted peptides were then assessed for their ability to detoxify Pb (FIGS. 2a-d). The inventors designed two assays for rapid and reliable screening of potential CAs both in vivo on bacteria and then in vitro on human cell culture. Briefly, DH5a or HT-29 cells were first exposed to Pb(NO3)2 slightly below the minimal inhibitory concentration and then treated with various concentrations of the investigated CA, ranging from 0.1 to 10 equivalents. The viability of the cells was determined by colony counting or by crystal violet (Feoktistova et al, 2016), for the bacteria and the human cells, respectively, and was compared to poisoned cells that were not treated with any CA as the negative control. […] On the other hand, testing the compounds on human cells cannot be performed with insoluble compounds but is more relevant for medicinal purposes.
HRMS (ESI) m/z calculated for C16H26N4O4SNa^+ [M+Na]^+ 427.14442; found: 427.14447 In vivo recovery tests A single colony of DH5a E. coli WT cells was grown overnight at 37° C. and 220 rpm in Tris Minimal Medium (TMM, pH 6.0; 5 mL) without antibiotics. The culture was then diluted to an OD600 of 0.03 with additional TMM to a total volume of 5 mL, and its OD600 was monitored. Upon cell density of 0.25 (which was achieved after 3-5 h), 1 mL of the culture was transferred into a cell culture tube and was labeled as the positive control. To additional 3 mL of the culture, 36 μL of Pb(NO3)2 1 M were added (final concentration of 12 mM). Both cultures were shaken at 37° C. and 220 rpm for an additional 5 h.
Aqueous stock solutions of each CA were plated on freshly prepared agar-LB plates such that the final concentration of each compound is equal to 0.5, 1, 2, 5, and 10 equivalents, compared to the amount of Pb(NO3)2 in 50 μL pre-toxified culture. The stock solutions were prepared such that plating and equally spreading 30 μL of each solution will provide the desired amount of CA. To additional two plates, 30 μL of H2O was added.
50 μL of the pre-toxified culture were homogenously spread to each CA-containing plate, 5 h after adding the metal to the culture. The Pb-containing culture was also plated on one of the two H2O-containing plates and was labeled as the negative control. Lastly, 50 μL of the non-toxified culture were platted on the second H2O-containing plate and was labeled as positive control. All plates (positive and negative control and five plates for each examined compound) were then incubated at 37° C. overnight. The plates were then imaged, and the colonies were counted (with Vilber Quantum Visualization System). The recovery of each concentration of CA was calculated according to equation 1: […]
#CAx—number of colonies of pre-toxified culture in a plate containing X mM of CA
#NEG—number of colonies of pre-toxified culture in a plate containing no CA
(§2) Each experiment was performed on three independent occasions. Values are mean±SD of >3 repeats each performed in triplicate.

[2] = system: HT-29 cells; experiment: In vitro recovery test: Pb detoxification of poisoned human cells, crystal violet; assay type: cell-based; conditions: highest concentration 10 mM (5 equiv.); Pb(NO3)2 2 mM; vs poisoned untreated cells; mean, SD
Description: as §1
96-well plates were prepared such that every well contains 10,000 cells in 100 μL medium, and the cells were allowed to adhere overnight. To all wells but the positive control, 10 μL of 22 mM Pb(NO3)2 were added (final concentration 2 mM). 10 μL of H2O was added to the positive control wells. 60 min after addition of metal, 10 μL of each solution of the examined CA (2.4, 6, 12, 24, 48, and 120 mM) were added to reach final concentrations of 0.2, 0.5, 1, 2, 4, and 10 mM (which are 0.1, 0.25, 0.5, 1, 2, and 5 equivalents, respectively). To the positive control wells containing no metal and the negative control wells containing metal but no CA, 10 μL of H2O were added. Each condition was performed in triplicates. The plates were incubated at 37° C. and 5% CO2 for an additional 23 h, after which the medium was removed, washed with fresh medium and 50 μL of crystal violet solution (0.5% crystal violet powder in 20 mL MeOH and 80 mL H2O) to each well and the plates were gently shaken (60 rpm) for 20 min. The plates were then washed with H2O until no more unbound dye was observed and allowed to dry overnight. 200 μL of MeOH were added to each well, and the plates were gently shaken (60 rpm) for 20 min, after which their absorbance at 560 nm was read with a plate reader. The recovery of each concentration of CA was calculated according to equation 2:
(§3) A[CAx]—absorbance of the pre-toxified well in the presence of X mM of CA
(§4) A[blank]—absorbance of blank wells (contain nothing)
A[NEG]—absorbance of the pre-toxified well that contains no CA
as §2

[3] = system: HT-29 cells; experiment: In vitro toxicity test, crystal violet; assay type: cell-based, human; conditions: HT-29, 24 h; for IC50: concentration at 50% viability, mean (SD), n.d. = not detected as it is too high
Description: 96-well plates were prepared such that every well contains 10,000 cells in 100 μL medium, and the cells were allowed to adhere overnight.
To all wells but the positive control, 10 μL of each solution of the examined CA (2.4, 6, 12, 24, 48, and 120 mM) were added to reach final concentrations of 0.2, 0.5, 1, 2, 4, and 10 mM. To the positive control wells, 10 μL of H2O was added. Each condition was performed in triplicates. The plates were incubated at 37° C. and 5% CO2 for 24 h, after which the medium was removed, washed with fresh medium and 50 μL of crystal violet solution (0.5% crystal violet powder in 20 mL MeOH and 80 mL H2O) to each well and the plates were gently shaken (60 rpm) for 20 min. The plates were then washed with H2O until no more unbound dye was observed and allowed to dry overnight. 200 μL of MeOH were added to each well, and the plates were gently shaken (60 rpm) for 20 min, after which their absorbance at 560 nm was read with a plate reader. The toxicity of each concentration of CA was calculated according to equation 3:
as §3, §4
A[POS]—absorbance of well that contains no CA
as §2

[4] = system: male mice (C57BL/6); experiment: Pb-poisoned mice: blood lead level and urinary Pb by ICP-MS; assay type: in vivo; conditions: 30 mg kg^−1 day^−1, days 10-16; for BLL: blood on day 18, eight mice; for Urinary Pb (ppm): urine on day 18
Description: Peptide 8a was then tested in mice. 40 male mice (C57BL/6) aged 6-8 weeks were provided with 20 mM Pb(OAc)2 solution as the sole water supply for seven days (days 1-7). This poisoning route mimics chronic exposure in humans. Two days after returning to clean water (day 9), they were randomly divided into five groups of eight mice. They received a single treatment per day for seven days (days 10-16) of either CaNa2EDTA, DMSA, or 8a at a concentration of 30 mg kg^−1 except for group 1 that served as the negative control (Table 3).
Blood samples (100 μL) were collected before dosing the mice on days 10-15 and on day 18, which is two days after the last dosing and the day by which the experiment was terminated. Urine was also collected from 34 animals on day 18 and was kept frozen until analysis.

## O=C([O-])CN(CCN(CC(=O)[O-])CC(=O)[O-])CC(=O)[O-].[Ca+2].[Na+].[Na+] [Na2CaEDTA]
[1]
  Recovery DH5α (%): 182%
[2]
  Recovery HT-29 (%): 95±16% and 95%
[3]
  IC50: 3.9 mM
[3]; inhibition at the highest concentration (10 mM), mean, SD
  Toxicity Maximal inhibition (%): 63%
[4]; IV
  BLL: 25.7 ± 1.6 µg/dL
  Urinary Pb (ppm): 210 ± 30 ppm

## O=C(O)C(S)C(S)C(=O)O (stereo not drawn) [DMSA, dimercaptosuccinic acid]
[1]
  Recovery DH5α (%): 165%
[2]
  Recovery HT-29 (%): 110±10% and 110%
[3]; Homo sapiens
  IC50: 3.7 mM
[3]; Homo sapiens, inhibition at the highest concentration (10 mM), mean, SD, read-out: Toxicity Maximal inhibition (%)
  inhibition at 10000 µM: 77%
[4]; Oral
  BLL: 23.3 ± 2.3 µg/dL
  Urinary Pb (ppm): 340 ± 28 ppm
